Source: patent US6348485B1, “Method for treating or preventing sleep disorders” (Takeda Chemical Industries, Ltd., priority 1998, dated 2002)

Tests used:
[1] = tested on: crab-eating macaques (Macaca fascicularis); assay: Sleep latencies at nighttime in monkeys (EEG/EMG/EOG sleep stage classification); format: in vivo; conditions: vs control
Experimental: (§1) Six female crab-eating macaques (Macaca fascicularis), weighing 2.8-4.2 kg, were housed individually in a room maintained at 24±1° C. with a 12-h light/dark cycle (light on 6:00). Under sodium pentobarbital anesthesia, stainless steel screw and bipolar electrodes for electroencephalogram (EEG), electromyogram (EMG) and electro-oculogram (EOG) were implanted. After recovery from surgery, the monkeys were well habituated to the recording chamber (60×60×80 cm) located in a sound-proof and electrically shielded room. Compound A (0.003 mg/kg) and/or triazolam (0.03 mg/kg) were given orally 17:50-17:55. Compound A and triazolam were suspended in 0.5% methylcellulose solution. The control monkey was given 0.5% MC. The behaviors of subjects were observed using a video camera with infrared light sensitivity. EEG, EMG and EOG were recorded on a MO disk with an electroencephalograph (EE5518, NEC Medical Systems, Tokyo, Japan). All recordings were carried out from 18:00 until 6:00. The EEG power spectral analysis was also performed continuously by means of a fast Fourier transform (FFT) system equipped with a personal computer. […] Latencies of each sleep stage (the time until the first appearance of each sleep stage) were determined from 18:00. The occurrence of each sleep stage at nighttime and other sleep parameters were also determined.

[2] = tested on: crab-eating macaques (Macaca fascicularis); assay: Observation of general behavior of monkeys (video camera); format: in vivo; conditions: triazolam 0.03 mg/kg p.o. alone
Experimental: as §1

Compound: CCC(=O)NCC[C@@H]1CCc2ccc3c(c21)CCO3 [compound A, (S)-N-[2-(1,6,7,8-tetrahydro-2H-indeno[5,4-b]furan-8-yl)ethyl]propionamide]
- effect on the latency of any sleep stages ([1]; compound A 0.003 mg/kg p.o. alone): no significant effects

Compound: Cc1nnc2n1-c1ccc(Cl)cc1C(c1ccccc1Cl)=NC2 [triazolam, 8-chloro-6-(2-chlorophenyl)-1-methyl-4H-[1,2,4]triazolo[4,3-a][1,4]benzodiazepine]
- ataxia and sedation [2]: did not cause
- effect on general behavior [2]: did not affect
- effect on the sleep latencies ([1]; triazolam 0.03 mg/kg p.o. alone): no significant effects
